Experimental data from ChEMBL document CHEMBL5723584 (2023).

Experiments:
[1] = target: 3-phosphoinositide-dependent protein kinase 1 (Homo sapiens) (UniProt O15530); test: activity of PDK1(h) at 1.0 µM in the Eurofins Kinase panel; conditions: Compound concentration 1.0 uM
[2] = target: Rhodopsin kinase GRK1 (Homo sapiens) (UniProt Q15835); test: activity of GRK1(h) at 1.0 µM in the Eurofins Kinase panel; conditions: Compound concentration 1.0 uM
[3] = target: G protein-coupled receptor kinase 6 (Homo sapiens) (UniProt P43250); test: activity of GRK6(h) at 1.0 µM in the Eurofins Kinase panel; conditions: Compound concentration 1.0 uM
[4] = target: Serine/threonine-protein kinase TAO2 (Homo sapiens) (UniProt Q9UL54); test: activity of TAO2(h) at 1.0 µM in the Eurofins Kinase panel; conditions: Compound concentration 1.0 uM
[5] = target: Wee1-like protein kinase 2 (Homo sapiens) (UniProt P0C1S8); test: activity of Wee1B(h) at 1.0 µM in the Eurofins Kinase panel; conditions: Compound concentration 1.0 uM
[6] = target: Serine/threonine-protein kinase MRCK beta (Homo sapiens) (UniProt Q9Y5S2); test: activity of MRCKbeta(h) at 1.0 µM in the Eurofins Kinase panel; conditions: Compound concentration 1.0 uM
[7] = target: Tyrosine-protein kinase Blk (Homo sapiens) (UniProt P51451); test: activity of Blk(h) at 1.0 µM in the Eurofins Kinase panel; conditions: Compound concentration 1.0 uM
[8] = target: Mitogen-activated protein kinase kinase kinase kinase 3 (Homo sapiens) (UniProt Q8IVH8); test: activity of MAP4K3(h) at 1.0 µM in the Eurofins Kinase panel; conditions: Compound concentration 1.0 uM
[9] = target: Testis-specific serine/threonine-protein kinase 1 (Homo sapiens) (UniProt Q9BXA7); test: activity of TSSK1(h) at 1.0 µM in the Eurofins Kinase panel; conditions: Compound concentration 1.0 uM
[10] = target: Serine/threonine-protein kinase PAK 2 (Homo sapiens) (UniProt Q13177); test: activity of PAK2(h) at 1.0 µM in the Eurofins Kinase panel; conditions: Compound concentration 1.0 uM
[11] = target: Serine/threonine-protein kinase 35 (Homo sapiens) (UniProt Q8TDR2); test: activity of CLIK1(h) at 1.0 µM in the Eurofins Kinase panel; conditions: Compound concentration 1.0 uM
[12] = target: MAPK/MAK/MRK overlapping kinase (Homo sapiens) (UniProt Q9UQ07); test: activity of MOK(h) at 1.0 µM in the Eurofins Kinase panel; conditions: Compound concentration 1.0 uM
[13] = target: Serine/threonine-protein kinase mTOR (Homo sapiens) (UniProt P42345); test: activity of mTOR(h) at 1.0 µM in the Eurofins Kinase panel; conditions: Compound concentration 1.0 uM
[14] = target: Myosin-IIIb (Homo sapiens) (UniProt Q8WXR4); test: activity of MYO3B(h) at 1.0 µM in the Eurofins Kinase panel; conditions: Compound concentration 1.0 uM
[15] = target: Serine/threonine-protein kinase 16 (Homo sapiens) (UniProt O75716); test: activity of STK16(h) at 1.0 µM in the Eurofins Kinase panel; conditions: Compound concentration 1.0 uM
[16] = target: Eukaryotic elongation factor 2 kinase (Homo sapiens) (UniProt O00418); test: activity of eEF-2K(h) at 1.0 µM in the Eurofins Kinase panel; conditions: Compound concentration 1.0 uM
Eukaryotic elongation factor 2 kinase (Homo sapiens), sequence (O00418 whole entry): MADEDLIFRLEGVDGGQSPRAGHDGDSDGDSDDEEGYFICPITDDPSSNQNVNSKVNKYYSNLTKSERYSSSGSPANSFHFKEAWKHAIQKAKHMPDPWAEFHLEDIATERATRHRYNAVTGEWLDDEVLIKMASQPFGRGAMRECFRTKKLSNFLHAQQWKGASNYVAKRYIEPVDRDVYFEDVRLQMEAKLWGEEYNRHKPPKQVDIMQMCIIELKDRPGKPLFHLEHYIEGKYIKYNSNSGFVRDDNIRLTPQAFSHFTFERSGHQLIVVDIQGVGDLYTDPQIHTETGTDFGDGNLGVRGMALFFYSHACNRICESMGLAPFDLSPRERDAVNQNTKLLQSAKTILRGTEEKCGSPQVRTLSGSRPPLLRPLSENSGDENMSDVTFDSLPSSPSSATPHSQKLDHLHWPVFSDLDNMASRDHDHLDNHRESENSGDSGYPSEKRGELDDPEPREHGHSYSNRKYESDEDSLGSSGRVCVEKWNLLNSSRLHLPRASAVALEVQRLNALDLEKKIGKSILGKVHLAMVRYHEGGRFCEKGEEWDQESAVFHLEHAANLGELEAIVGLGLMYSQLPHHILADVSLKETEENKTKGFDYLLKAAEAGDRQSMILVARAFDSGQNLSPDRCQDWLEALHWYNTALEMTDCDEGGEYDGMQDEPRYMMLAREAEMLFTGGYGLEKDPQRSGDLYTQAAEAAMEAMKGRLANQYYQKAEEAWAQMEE

[17] = target: Calcium/calmodulin-dependent protein kinase type II subunit alpha (Homo sapiens) (UniProt Q9UQM7); test: activity of CaMKIIalpha(h) at 1.0 µM in the Eurofins Kinase panel; conditions: Compound concentration 1.0 uM
Calcium/calmodulin-dependent protein kinase type II subunit alpha (Homo sapiens), sequence (Q9UQM7 whole entry): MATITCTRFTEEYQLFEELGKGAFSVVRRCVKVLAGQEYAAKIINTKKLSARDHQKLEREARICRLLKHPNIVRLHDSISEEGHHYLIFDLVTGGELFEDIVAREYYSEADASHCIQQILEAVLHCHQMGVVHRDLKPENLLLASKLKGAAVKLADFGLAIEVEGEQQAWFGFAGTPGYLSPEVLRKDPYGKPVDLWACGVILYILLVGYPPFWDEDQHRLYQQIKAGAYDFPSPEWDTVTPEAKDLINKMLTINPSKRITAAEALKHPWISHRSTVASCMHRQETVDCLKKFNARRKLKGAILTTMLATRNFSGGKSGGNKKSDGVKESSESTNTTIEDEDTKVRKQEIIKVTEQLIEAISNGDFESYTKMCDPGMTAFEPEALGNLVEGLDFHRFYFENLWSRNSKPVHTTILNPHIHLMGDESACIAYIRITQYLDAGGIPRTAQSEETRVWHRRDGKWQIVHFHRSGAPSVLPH

[18] = target: cGMP-dependent protein kinase 1 (Homo sapiens) (UniProt Q13976); test: activity of PKG1alpha(h) at 1.0 µM in the Eurofins Kinase panel; conditions: Compound concentration 1.0 uM
cGMP-dependent protein kinase 1 (Homo sapiens), sequence (Q13976 whole entry): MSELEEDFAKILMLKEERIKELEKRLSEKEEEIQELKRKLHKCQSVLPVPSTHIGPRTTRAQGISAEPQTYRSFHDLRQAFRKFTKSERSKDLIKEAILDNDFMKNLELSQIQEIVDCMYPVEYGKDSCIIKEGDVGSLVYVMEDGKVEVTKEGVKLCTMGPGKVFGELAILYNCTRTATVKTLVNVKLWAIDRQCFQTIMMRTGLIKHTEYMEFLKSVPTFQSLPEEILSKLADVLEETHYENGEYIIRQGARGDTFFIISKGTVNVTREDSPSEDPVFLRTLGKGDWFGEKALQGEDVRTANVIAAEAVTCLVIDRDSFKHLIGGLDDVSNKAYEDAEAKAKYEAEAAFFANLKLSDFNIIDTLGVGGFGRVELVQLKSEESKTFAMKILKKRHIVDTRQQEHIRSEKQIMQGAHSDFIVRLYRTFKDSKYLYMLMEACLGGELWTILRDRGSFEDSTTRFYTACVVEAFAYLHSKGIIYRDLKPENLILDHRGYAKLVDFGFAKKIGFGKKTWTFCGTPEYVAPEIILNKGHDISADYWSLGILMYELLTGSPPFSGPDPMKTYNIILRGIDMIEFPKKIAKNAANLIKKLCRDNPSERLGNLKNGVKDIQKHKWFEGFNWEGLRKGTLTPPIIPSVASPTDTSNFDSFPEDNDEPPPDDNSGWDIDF

[19] = target: Insulin receptor (Homo sapiens) (UniProt P06213); test: activity of IR(h), activated at 1.0 µM in the Eurofins Kinase panel; conditions: Compound concentration 1.0 uM
[20] = target: Dual specificity tyrosine-phosphorylation-regulated kinase 3 (Homo sapiens) (UniProt O43781); test: activity of DYRK3(h) at 1.0 µM in the Eurofins Kinase panel; conditions: Compound concentration 1.0 uM
[21] = target: MAP kinase-interacting serine/threonine-protein kinase 2 (Homo sapiens, UniProt Q9HBH9); test: Promega NanoBRET (MKNK2)
[22] = target: Serine/threonine-protein kinase 32A (Homo sapiens) (UniProt Q8WU08); test: activity of STK32A(h) at 1.0 µM in the Eurofins Kinase panel; conditions: Compound concentration 1.0 uM
[23] = target: Myosin light chain kinase 2, skeletal/cardiac muscle (Homo sapiens) (UniProt Q9H1R3); test: activity of MYLK2(h) at 1.0 µM in the Eurofins Kinase panel; conditions: Compound concentration 1.0 uM
Myosin light chain kinase 2, skeletal/cardiac muscle (Homo sapiens), sequence (Q9H1R3 whole entry): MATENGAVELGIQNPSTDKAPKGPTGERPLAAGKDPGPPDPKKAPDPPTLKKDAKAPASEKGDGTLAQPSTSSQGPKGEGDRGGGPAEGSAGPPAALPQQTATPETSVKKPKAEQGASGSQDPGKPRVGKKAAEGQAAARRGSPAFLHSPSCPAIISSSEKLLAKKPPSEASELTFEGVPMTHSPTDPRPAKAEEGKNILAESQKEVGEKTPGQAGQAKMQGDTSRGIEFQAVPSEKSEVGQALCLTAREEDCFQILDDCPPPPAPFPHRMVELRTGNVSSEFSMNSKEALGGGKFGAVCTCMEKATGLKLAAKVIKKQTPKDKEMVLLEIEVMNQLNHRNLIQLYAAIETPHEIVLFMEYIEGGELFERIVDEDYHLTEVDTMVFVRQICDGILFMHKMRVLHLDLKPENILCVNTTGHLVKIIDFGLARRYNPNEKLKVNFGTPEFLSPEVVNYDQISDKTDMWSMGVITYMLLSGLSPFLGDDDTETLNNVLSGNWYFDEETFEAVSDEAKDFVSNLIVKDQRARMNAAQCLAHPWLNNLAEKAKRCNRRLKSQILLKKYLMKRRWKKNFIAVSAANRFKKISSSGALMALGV

[24] = target: Phosphatidylinositol 5-phosphate 4-kinase type-2 alpha (Homo sapiens) (UniProt P48426); test: activity of PIP4K2alpha(h) at 1.0 µM in the Eurofins Kinase panel; conditions: Compound concentration 1.0 uM
Phosphatidylinositol 5-phosphate 4-kinase type-2 alpha (Homo sapiens), sequence (P48426 whole entry): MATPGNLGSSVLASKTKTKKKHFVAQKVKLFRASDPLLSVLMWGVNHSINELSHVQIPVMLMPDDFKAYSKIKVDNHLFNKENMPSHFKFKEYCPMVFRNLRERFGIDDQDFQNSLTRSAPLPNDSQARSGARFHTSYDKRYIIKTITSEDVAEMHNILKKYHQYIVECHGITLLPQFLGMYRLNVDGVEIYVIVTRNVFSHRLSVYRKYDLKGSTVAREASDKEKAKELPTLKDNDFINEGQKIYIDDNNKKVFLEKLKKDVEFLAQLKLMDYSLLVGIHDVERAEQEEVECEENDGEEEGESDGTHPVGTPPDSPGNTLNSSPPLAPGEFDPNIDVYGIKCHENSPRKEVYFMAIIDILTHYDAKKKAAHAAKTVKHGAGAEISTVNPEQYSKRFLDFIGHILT

[25] = target: Calcium/calmodulin-dependent protein kinase type II subunit beta (Homo sapiens) (UniProt Q13554); test: activity of CaMKIIbeta(h) at 1.0 µM in the Eurofins Kinase panel; conditions: Compound concentration 1.0 uM
Calcium/calmodulin-dependent protein kinase type II subunit beta (Homo sapiens), sequence (Q13554 whole entry): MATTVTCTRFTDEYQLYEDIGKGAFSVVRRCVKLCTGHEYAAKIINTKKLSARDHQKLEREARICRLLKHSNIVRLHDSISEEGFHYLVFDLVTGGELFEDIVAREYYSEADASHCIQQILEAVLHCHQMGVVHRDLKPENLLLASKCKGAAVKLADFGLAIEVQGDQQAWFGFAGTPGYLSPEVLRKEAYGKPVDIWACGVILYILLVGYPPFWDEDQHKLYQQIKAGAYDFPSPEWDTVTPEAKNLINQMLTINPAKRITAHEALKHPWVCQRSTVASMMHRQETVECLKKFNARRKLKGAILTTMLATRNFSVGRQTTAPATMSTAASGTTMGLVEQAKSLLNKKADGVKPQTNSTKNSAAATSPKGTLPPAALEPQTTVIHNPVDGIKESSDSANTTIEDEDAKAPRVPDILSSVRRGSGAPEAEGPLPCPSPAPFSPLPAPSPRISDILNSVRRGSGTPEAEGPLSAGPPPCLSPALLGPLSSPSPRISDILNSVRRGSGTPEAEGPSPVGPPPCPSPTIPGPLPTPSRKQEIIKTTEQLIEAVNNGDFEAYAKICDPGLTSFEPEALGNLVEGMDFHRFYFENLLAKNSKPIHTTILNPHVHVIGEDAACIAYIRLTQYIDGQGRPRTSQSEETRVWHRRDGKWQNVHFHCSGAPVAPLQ

[26] = target: Testis-specific serine/threonine-protein kinase 2 (Homo sapiens) (UniProt Q96PF2); test: activity of TSSK2(h) at 1.0 µM in the Eurofins Kinase panel; conditions: Compound concentration 1.0 uM
[27] = target: Protein kinase C epsilon type (Homo sapiens) (UniProt Q02156); test: activity of PKCepsilon(h) at 1.0 µM in the Eurofins Kinase panel; conditions: Compound concentration 1.0 uM
[28] = target: Serine/threonine-protein kinase B-raf (Homo sapiens) (UniProt P15056); test: activity of B-Raf(h) at 1.0 µM in the Eurofins Kinase panel; conditions: Compound concentration 1.0 uM
Serine/threonine-protein kinase B-raf (Homo sapiens), sequence (P15056 whole entry): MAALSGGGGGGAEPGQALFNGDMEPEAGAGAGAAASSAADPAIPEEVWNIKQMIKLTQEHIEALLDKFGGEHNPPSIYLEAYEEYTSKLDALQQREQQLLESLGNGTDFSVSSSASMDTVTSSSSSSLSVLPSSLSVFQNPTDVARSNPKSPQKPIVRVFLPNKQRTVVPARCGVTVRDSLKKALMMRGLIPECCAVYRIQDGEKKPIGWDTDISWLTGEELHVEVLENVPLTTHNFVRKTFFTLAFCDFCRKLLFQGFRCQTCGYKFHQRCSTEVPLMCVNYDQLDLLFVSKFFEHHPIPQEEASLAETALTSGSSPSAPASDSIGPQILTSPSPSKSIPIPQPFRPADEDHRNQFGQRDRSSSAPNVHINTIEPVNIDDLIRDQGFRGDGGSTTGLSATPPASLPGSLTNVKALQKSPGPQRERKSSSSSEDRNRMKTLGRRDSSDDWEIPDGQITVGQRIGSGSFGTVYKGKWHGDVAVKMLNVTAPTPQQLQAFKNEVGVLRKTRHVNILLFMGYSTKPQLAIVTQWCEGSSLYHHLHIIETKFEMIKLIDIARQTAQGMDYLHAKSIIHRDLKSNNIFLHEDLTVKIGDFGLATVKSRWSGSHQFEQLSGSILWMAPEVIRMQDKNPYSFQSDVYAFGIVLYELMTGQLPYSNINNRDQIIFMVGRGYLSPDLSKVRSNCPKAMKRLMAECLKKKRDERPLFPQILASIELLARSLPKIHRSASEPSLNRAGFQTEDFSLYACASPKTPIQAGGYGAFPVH

[29] = target: Serine/threonine-protein kinase Chk1 (Homo sapiens) (UniProt O14757); test: activity of CHK1(h) at 1.0 µM in the Eurofins Kinase panel; conditions: Compound concentration 1.0 uM
[30] = target: Calcium/calmodulin-dependent protein kinase kinase 1 (Homo sapiens) (UniProt Q8N5S9); test: activity of CaMKK1(h) at 1.0 µM in the Eurofins Kinase panel; conditions: Compound concentration 1.0 uM
[31] = target: Interleukin-1 receptor-associated kinase 4 (Homo sapiens) (UniProt Q9NWZ3); test: activity of IRAK4(h) at 1.0 µM in the Eurofins Kinase panel; conditions: Compound concentration 1.0 uM
[32] = target: Tyrosine-protein kinase Tec (Homo sapiens) (UniProt P42680); test: activity of Tec(h) activated at 1.0 µM in the Eurofins Kinase panel; conditions: Compound concentration 1.0 uM
[33] = target: Eukaryotic translation initiation factor 2-alpha kinase 3 (Homo sapiens) (UniProt Q9NZJ5); test: activity of PEK(h) at 1.0 µM in the Eurofins Kinase panel; conditions: Compound concentration 1.0 uM
[34] = target: Ephrin type-A receptor 8 (Homo sapiens) (UniProt P29322); test: activity of EphA8(h) at 1.0 µM in the Eurofins Kinase panel; conditions: Compound concentration 1.0 uM
[35] = target: Bone morphogenetic protein receptor type-2 (Homo sapiens) (UniProt Q13873); test: activity of BMPR2(h) at 1.0 µM in the Eurofins Kinase panel; conditions: Compound concentration 1.0 uM
[36] = target: Misshapen-like kinase 1 (Homo sapiens) (UniProt Q8N4C8); test: activity of MINK(h) at 1.0 µM in the Eurofins Kinase panel; conditions: Compound concentration 1.0 uM
[37] = target: Tyrosine-protein kinase BTK (Homo sapiens) (UniProt Q06187); test: activity of BTK(h) at 1.0 µM in the Eurofins Kinase panel; conditions: Compound concentration 1.0 uM
Tyrosine-protein kinase BTK (Homo sapiens), sequence (Q06187 whole entry): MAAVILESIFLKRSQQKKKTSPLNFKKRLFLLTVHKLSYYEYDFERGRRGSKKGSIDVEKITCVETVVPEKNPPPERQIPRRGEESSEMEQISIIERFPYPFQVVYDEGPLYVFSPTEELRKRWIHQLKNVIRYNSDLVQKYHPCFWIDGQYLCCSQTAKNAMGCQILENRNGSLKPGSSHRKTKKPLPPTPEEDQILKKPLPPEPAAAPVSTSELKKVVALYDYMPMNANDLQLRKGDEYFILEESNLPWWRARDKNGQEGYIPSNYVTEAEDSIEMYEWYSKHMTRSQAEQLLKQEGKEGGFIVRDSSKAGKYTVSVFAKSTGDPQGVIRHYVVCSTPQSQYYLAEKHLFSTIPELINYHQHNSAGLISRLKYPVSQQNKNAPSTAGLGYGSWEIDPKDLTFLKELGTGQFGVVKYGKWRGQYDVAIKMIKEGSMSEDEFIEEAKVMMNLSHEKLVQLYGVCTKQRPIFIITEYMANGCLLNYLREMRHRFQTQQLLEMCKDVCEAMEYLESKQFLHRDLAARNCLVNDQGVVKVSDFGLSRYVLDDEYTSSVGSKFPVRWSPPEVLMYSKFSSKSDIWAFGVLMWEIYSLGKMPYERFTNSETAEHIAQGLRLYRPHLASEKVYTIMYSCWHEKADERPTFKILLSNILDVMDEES

[38] = target: Serine/threonine-protein kinase 38-like (Homo sapiens) (UniProt Q9Y2H1); test: activity of NDR2(h) at 1.0 µM in the Eurofins Kinase panel; conditions: Compound concentration 1.0 uM
[39] = target: Epithelial discoidin domain-containing receptor 1 (Homo sapiens) (UniProt Q08345); test: activity of DDR1(h) at 1.0 µM in the Eurofins Kinase panel; conditions: Compound concentration 1.0 uM

Q: What does the source list for Cc1cc2c(-c3ccc(NC(=O)[C@H](N)CC(C)(C)C)cc3C)ccnc2[nH]1?
A: activity [1]: 105%; activity [2]: 86%; activity [3]: 95%; activity [4]: 90%; activity [5]: 88%; activity [6]: 100%; activity [7]: 88%; activity [8]: 109%; activity [9]: 116%; activity [10]: 95%; activity [11]: 97%; activity [12]: 90%; activity [13]: 95%; activity [14]: 79%; activity [15]: 94%; activity [16]: 92%; activity [17]: 88%; activity [18]: 118%; activity [19]: 92%; activity [20]: 99%; IC50 [21]: 5.5 µM (not active); activity [22]: 90%; activity [23]: 76%; activity [24]: 100%; activity [25]: 93%; activity [26]: 113%; activity [27]: 97%; activity [28]: 110%; activity [29]: 108%; activity [30]: 89%; activity [31]: 90%; activity [32]: 126%; activity [33]: 91%; activity [34]: 115%; activity [35]: 85%; activity [36]: 89%; activity [37]: 122%; activity [38]: 107%; activity [39]: 98%
